Key:
Experiment in all cases: relative viability (nuclei count vs DMSO), 5 days (fraction); higher = more cells survive
Entinostat + Trametinib = compound: Nc1ccccc1NC(=O)c1ccc(CNC(=O)OCc2cccnc2)cc1 [Entinostat] + CC(=O)Nc1cccc(-n2c(=O)n(C3CC3)c(=O)c3c(Nc4ccc(I)cc4F)n(C)c(=O)c(C)c32)c1 [Trametinib] (partner 0.02 µM)
Procedure, shortened: (§1)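 Each reported value is a median over duplicate plates. It expresses relative viability: treated-well nuclei count divided by vehicle-well nuclei count. Lung cancer cell lines in 1536-well plates were dosed by pin tool a day after seeding, alone with one drug or with a fixed anchor-drug dose plus five library-drug doses (not always all listed) in √10 steps, and nuclei were counted after 5 days.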

[1] = compound: C1COCCN1C2=NC(=NC3=C2OC4=C3C=CC=N4)C5=CC(=CC=C5)NC(=O)C6=CN=C(C=C6)N + O=C(c1cc(Cc2n[nH]c(=O)c3ccccc23)ccc1F)N1CCN(C(=O)C2CC2)CC1 [Olaparib] (partner 8 µM)
Procedure, shortened: as §1

SGI-1776 + Pictilisib = compound: CN1CCC(CNc2ccc3ncc(-c4cccc(OC(F)(F)F)c4)n3n2)CC1 [SGI-1776] + CS(=O)(=O)N1CCN(Cc2cc3nc(-c4cccc5[nH]ncc45)nc(N4CCOCC4)c3s2)CC1 [Pictilisib] (partner 1 µM)
Procedure, shortened: as §1

SGI-1776 + Pemetrexed = compound: CN1CCC(CNc2ccc3ncc(-c4cccc(OC(F)(F)F)c4)n3n2)CC1 [SGI-1776] + Nc1nc2[nH]cc(CCc3ccc(C(=O)N[C@@H](CCC(=O)O)C(=O)O)cc3)c2c(=O)[nH]1 [Pemetrexed] (partner 0.2 µM)
Procedure, shortened: as §1

| Cell Line | relative viability (Entinostat + Trametinib; first compound 0.02 µM) | relative viability (Entinostat + Trametinib; first compound 0.06325 µM) | relative viability (Entinostat + Trametinib; first compound 0.2 µM) | relative viability (Entinostat + Trametinib; first compound 0.6325 µM) | relative viability (Entinostat + Trametinib; first compound 2 µM) | relative viability ([1]; first compound 0.02 µM) | relative viability ([1]; first compound 0.06325 µM) | relative viability ([1]; first compound 0.2 µM) | relative viability ([1]; first compound 0.6325 µM) | relative viability ([1]; first compound 2 µM) | relative viability (SGI-1776 + Pictilisib; first compound 0.08 µM) | relative viability (SGI-1776 + Pictilisib; first compound 0.8 µM) | relative viability (SGI-1776 + Pictilisib; first compound 2.53 µM) | relative viability (SGI-1776 + Pictilisib; first compound 8 µM) | relative viability (SGI-1776 + Pemetrexed; first compound 0.08 µM) | relative viability (SGI-1776 + Pemetrexed; first compound 0.8 µM) | relative viability (SGI-1776 + Pemetrexed; first compound 2.53 µM) | relative viability (SGI-1776 + Pemetrexed; first compound 8 µM) |
| --- | --- | --- | --- | --- | --- | --- | --- | --- | --- | --- | --- | --- | --- | --- | --- | --- | --- | --- |
| HCC-366 | 0.42 | 0.306 | 0.253 | 0.218 | 0.0673 | 0.488 | 0.419 | 0.322 | 0.412 | 0.218 | 0.158 | 0.192 | 0.137 | 0.0802 | 0.184 | 0.17 | 0.172 | 0.164 |
| SW 1573 | 0.652 | 0.722 | 0.733 | 0.554 | 0.431 | 0.488 | 0.508 | 0.439 | 0.459 | 0.36 | 0.452 | 0.449 | 0.424 | 0.393 | 0.896 | 0.799 | 0.77 | 0.671 |
| HCC-44 | 1.07 | 0.895 | 0.81 | 0.735 | 0.625 | 0.94 | 1.06 | 1.02 | 1.08 | 0.918 | 0.662 | 0.589 | 0.653 | 0.42 | 0.612 | 0.621 | 0.679 | 0.633 |
| A-427 | 0.882 | 0.921 | 0.866 | 0.639 | 0.523 | 0.795 | 0.717 | 0.72 | 0.789 | 0.598 | 0.704 | 0.694 | 0.824 | 0.657 | 1.01 | 1.05 | 0.944 | 0.897 |
| NCI-H441 | 0.498 | 0.687 | 0.568 | 0.227 | 0.147 | 0.451 | 0.553 | 0.686 | 0.536 | 0.414 | 0.399 | 0.62 | 0.564 | 0.299 | 0.276 | 0.258 | 0.299 | 0.26 |
| LK-2 | 0.778 | 0.686 | 0.652 | 0.447 | 0.349 | 0.609 | 0.902 | 0.691 | 0.651 | 0.464 | 0.504 | 0.563 | 0.47 | 0.308 | 0.295 | 0.352 | 0.291 | 0.201 |
| NCI-H2085 | 0.552 | 0.765 | 0.508 | 0.499 | 0.408 | 0.735 | 0.793 | 0.747 | 0.68 | 0.547 | 0.533 | 0.505 | 0.53 | 0.356 | 0.936 | 1.06 | 0.971 | 0.788 |
| NCI-H647 | 0.48 | 0.398 | 0.525 | 0.322 | 0.133 | 0.684 | 0.69 | 0.573 | 0.606 | 0.256 | 0.474 | 0.434 | 0.247 | 0.219 | 0.172 | 0.151 | 0.166 | 0.145 |
| SK-MES-1 | 0.553 | 0.693 | 0.865 | 0.83 | 0.512 | 0.71 | 0.816 | 0.611 | 0.51 | 0.427 | 0.364 | 0.353 | 0.33 | 0.278 | 1.11 | 1 | 0.999 | 0.647 |

From the supplement of paper PMC10307832
